Data from patent US12049638B2, “Synthetic genetic elements for biomanufacture” (Janssen Biotech, Inc., priority 2019, dated 2024).

What was measured:
P600-PEAK-Rapid cells = assay: AAV production from P600 stable pool after Ad5-CMV-SR21 infection, with 2-aminopurine, ddPCR mCherry assay; assay type: cell-based, human
Method: ddPCR quantitation was based on the method described by Lock et al. (2014) Human Gene Therapy methods 23: 115-125. Two 1 of the lysate was DNAse digested in 20 reactions containing 1× PCR buffer+20 mM Tris pH 8.5+8 units DNAse I at 37° C. for 1 hour 96-well plates in a thermocycler. 2 μl of the DNAse digested samples were diluted with 98 Virus Dilution Buffer (VDB) and 2 μl of this dilution was added to ddPCR reactions containing 1× PCR SuperMix+1× PCR Primer/Probe for the mCherry transgene (See Materials section). ddPCR droplets were formed using the Bio-Rad automated droplet maker. PCR cycling was as follows: 95° C. 10 min; 42× (94° C. 30s, 60° C. 1 min, 72° C. 15s all three at cycling time of 2° C. per s); 98° C. 10 min; 4° C. hold. FAM fluorescence was detected on the Bio-Rad droplet reader as per manufacturer's instructions. The clones that produced the highest DNAse-resistant particles as detected as FAM-fluorescence positive droplets were subjected to expansion and further screening.
Construct P600 was transfected into Peak-RAPID cells and a stable pool was generated through selection with 0.5 μg/ml puromycin essentially as described for P439 cells above. Cells were passed 1:10 for 6 weeks prior to assaying AAV production.
2.5E6 P600-PEAK-Rapid p6 cells were plated into three T25 flasks in 5 mls DMEM+10% FBS and incubated for three days at 37° C. The cells density on the day of infection was determined to be 6.6E6 viable cells in one of the flasks where cells were recovered with TrypLE and counted using Trypan blue exclusion. Media in the two remaining flasks were replaced with […] DMEM+2% FBS containing 2.6E8 Ad5-CMV-SR21 virus particles. The flasks were incubated for 24 hours at 32° C. […] One ml of DMEM+2% FBS was added to the other flask, and both flasks were incubated at 32° C. for 7 additional days. Media was recovered from the flasks, centrifuged at 3,000 rpm for 5 minutes to pellet cells and debris. 2 μl of each sample supernatant was subjected to DNAse digestion and ddPCR quantitation using the mCherry assay as described above.

adenovirus infection = settings: cited from earlier work
[1] = tested on: recombinase reporter plasmid (P41) with SR21 attP and attB signals; assay: Recombinase reporter assay (Dual Glo firefly/Renilla luciferase) in transfected HEK293 cells; assay type: cell-based, human
Text: A vector (P175) (SEQ ID NO:10) was constructed by Gene Synthesis (GENEWIZ, Plainfield, N.J.) to express SR21 recombinase in mammalian cells under control of the CMV promoter and followed by an SV40 polyadenylation signal. The SR21 recombinase open reading frame is the same as SEQ ID NO:3 except that the bacterial translation initiation codon “TTG” is replaced by an “ATG”, and three point-mutations were introduced to destroy restriction endonuclease recognition sites.
A recombinase reporter plasmid (P41) was also constructed by gene synthesis (GENEWIZ, Plainfield, N.J.) (SEQ ID NO:11; FIG. 4). It encodes a constitutively expressed green fluorescent protein (GFP)—self-cleaving F2A—Renilla luciferase (rLUC) fusion protein driven by the EF1α promoter. It also encodes recombinase activated—mCherry-self cleaving P2A-firefly luciferase (fLUC) reporter gene flanked by SR21 attP (SEQ ID NO:7) and attB (SEQ ID NO:9) signals in the antisense orientation relative to the CMV promoter. When SR21 recombinase recombines the attP and attB signals, the coding region is inverted into the sense orientation and the mCherry-P2A-fLUC protein is expressed (See FIG. 4).
To measure SR21 recombinase activity in human cells, 75,000 HEK293 cells were plated into each well of 96-well tissue culture plates in 100 of high-glucose DMEM+10% Fetal Bovine Serum. The recombinase reporter plasmid (P041) the SR21 Recombinase expression plasmid (P175)+[…] (to normalize DNA amounts) were complexed with Fugene-HD transfection reagent in OptiMEM medium for 15 minutes at room temperature as shown in Table 1 and transfected into triplicate wells of the plated cells. Plates were incubated at 37° C. for 48 hours.
Firefly Luciferase (fLUC) and Renilla luciferase (rLUC) was assayed sequentially in transfected wells using the Dual Glo assay kit from Promega. Medium was removed from the transfected wells of the tissue culture plate and 100 μl of a 1:1 mixture of DMEM medium (without phenol red) and the Dual Glo luciferase+fLUC substrate was added. The plate was incubated at room temperature for 10 minutes. The lysate was transferred to an opaque white 96-well plate. fLUC activity was measured using the Envision multilabel reader. Next, 50 μl per well of the Stop-and-Glo buffer+Renilla substrate was added and the plate was incubated with gentle shaking for 10 minutes. The Renilla luciferase signal was read on the same Envision reader.

[2] = tested on: Stop Cassette of vector P439 (attP/attB); assay: Stop Cassette removal by SR21 Recombinase, co-transfection of P439 and P175, PCR and sequencing; assay type: cell-based, human; settings: PEAK-Rapid cells, three days; PCR product sequenced; attL produced
Method: Media was removed, cells were washed once with D-PBS and then incubated with TrypLE for 5 minutes at 37° C. Cells were transferred to a sterile microfuge tube, pelleted by centrifugation, washed once with 1 ml D-PBS and pelleted again. Episomal plasmids were recovered by alkaline lysis using the Qiagen Spin Miniprep kit designed for isolating plasmids from bacteria.
To destroy unrecombined plasmid DNA, an aliquot of the recovered DNA was digested with enzyme Spe I-HF in 1× CutSmart Buffer at 37° C. Ihour and 80° C. 20 minutes. The recovered DNA was subjected to PCR amplification with primers P349F3 (SEQ ID NO:32) and P349R9 (SEQ ID NO:33) using NEXT Ultra II Q5 Master Mix with the following cycling conditions: 98° C. 1 min; 35× (98° C. 10s, 72° C. 10s); 5 min 72° C. A single PCR product of the predicted size was observed when subjected to electrophoresis on a 1% agarose gel. The PCR product was purified by size exclusion chromatography using a CHROMA SPIN™+TE-1000 Column. The PCR product was sequenced using the same primers used for PCR (GeneWiz).

## Nc1ncc2[nH]cnc2n1 [2-AP, 2-aminopurine]
P600-PEAK-Rapid cells; DMEM + 2% FBS + 1.25 mM 2-AP added 24 hours post infection, 32° C., 7 additional days, media
  AAV GC/Cell: 59,356 ± 11,026 GC/Cell
P600-PEAK-Rapid cells; concentrations above 1.25 mM and addition earlier than 24 hours
  effect on AAV production: inhibitory
P600-PEAK-Rapid cells; in the presence of 2-aminopurine versus without, P600 stable pool
  increase in AAV virus production: 2.5 fold
Adenovirus infection; 10 mM 2-AP treatment 1-2 hours post infection
  cytopathic effect of adenovirus infection: blocked
Adenovirus infection; 10 mM 2-AP, for at least three days
  toxicity to cells: nontoxic

B1: SR21 recombinase: putative serine recombinase from Bacillus safensis strain CCMA-560, SEQ ID NO:2, expressed from plasmid P175 (protein)
chain: MELKHIVNSYNVTKIIGYLRRSRQDVEREKRTGEDTLTEQKELMNKILTGIEIPYETRTEIGSGESIEGRPVFKSCLADLRSGKFQAIAVKEITRLSRGSYSDAGEIVNLLNEKRIIIITPYKIYDPRNPVDARQIRFELFMAREEFEMTRERMNGAKFTYAAQGKWISGLAPFGYKLNKRTSRLEPSDEDKVVVKLIFDIFLNGLDGKDLSYTAIATHLSKLQFTTPRGGKRWSKDTVRKILQNEAYMGRVRYKARETTKDGKKVFRPESEHIVVDDAHEPIINKEDFEAVQEKIKNKVPLLPVVTSYEPNELAGICVCSVCGKSLQKFESEYNRKNKDGTSSYFHVKLLICKINKCTSVRYEYVEEAILEYLEQLIALENNKLKAIIEKSMEAAETNNSEKTSEQMLVQANQKQKELENKLTFIFEKFESGIYTDEMFLQRKAAIEKEVADIKKLKQELSMTFEVKEKDVNEFRVNISDVVKFYKESKSRGLKNEKLRSIFDFIVLEMTEKRRGPIPAKFNIYPVLRIPSVVN
modifications: SR21 Recombinase (WP_029708089.1) Protein Sequence
[1]; 100 ng P41 reporter + 100 ng P175, 48 hours, constitutive Renilla luciferase (transfection efficiency)
  rLUC: 3.4E06 ±
[1]; 100 ng P41 reporter + 100 ng P175 recombinase expression plasmid, 48 hours
  fLUC: 6.6E06 ±
[1]; reporter + recombinase expression plasmid versus reporter + deoxynucleotides
  Fold-Increase in fLUC Activity: 1535 fold
[1]; representative of three independent experiments
  SR21 recombinase activity in human cells: highly active
[2]
  removal of STOP cassette from plasmid P439 by recombining attP and attB: precisely removed
